Measurements reported in patent US12643871B2, “Aryl formamide compound containing chiral sulfur oxide or salt thereof, preparation method, herbicidal composition and use thereof” (Qingdao Kingagroot Chemical Compound Co., Ltd., priority 2019, dated 2026).

How the values were obtained:
Format in all cases: in vivo
[1] = system: Abutilon theophrasti; assay: Weeding effect in post-emergence stage; conditions: 250 g/ha; 2 leaf stage; 15 days after application; fresh weight control rate
Outline: (§1)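 Post-emergence spray, 2-leaf stage; doses 500–15 g/ha; acetone + Tween 80 + methyl oleate EC (1.5 L/ha) as synergist. Greenhouse 15 d. Readout: fresh weight control rate graded levels 0–5 (5 = above 85%, 0 = below 5%); triplicate means.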

[2] = system: Setaria viridis; assay: Weeding effect in post-emergence stage; conditions: 250 g/ha; 2 leaf stage; 15 days after application; fresh weight control rate
Outline: as §1

[3] = system: Digitaria sanguinalis; assay: Weeding effect in post-emergence stage; conditions: 250 g/ha; 2 leaf stage; 15 days after application; fresh weight control rate
Outline: as §1

[4] = system: Amaranthus retroflexus; assay: Weeding effect in post-emergence stage; conditions: 250 g/ha; 2 leaf stage; 15 days after application; fresh weight control rate
Outline: as §1

[5] = system: Echinochloa crusgali; assay: Weeding effect in post-emergence stage; conditions: 250 g/ha; 2 leaf stage; 15 days after application; fresh weight control rate
Outline: as §1

[6] = system: key weeds such as Digitaria sanguinalis, Leptochloa chinensis; assay: Comparison experiment (post-emergence, Tables 4-7), herbicidal activity on weeds not listed separately
Description: The above growth control rates are fresh weight control rates.
Experiment on weeding effect in post-emergence stage: monocotyledonous and dicotyledonous weed seeds (Descurainia sophia, Capsella bursa-pastoris, Galium aparine, Stellaria media, Lithospermum arvense, Rorippa indica, Alopecurus aequalis, Beckmannia syzigachne, Sclerochloa dura, Phleum paniculatum, Bromus japonicus, Aegilops tauschii, Phalaris arundinacea, Amaranthus retroflexus, Chenopodiaceae, Commelina communis, Sonchus arvensis, convolvulus arvensis, Cirsium setosum, Solanum nigrum, Acalypha australis, Digitaria sanguinalis, Echinochloa crusgalli, Setaria viridis, Setaria glauca, Leptochloa chinensis, Monochoria vaginalis, Sagittaria trifolia, Scirpus juncoides, Cyperus rotundus, Cyperus iria, Cyperus difformis, Fimbristylis, Portulaca oleracea, Xanthium sibiricum, Pharbitis nil) and major crop seeds (wheat, corn, rice, soybean, cotton, oilseed rape, millet, sorghum, potato, sesame, ricinus) were placed in plastic pots filled with soil, then covered with 0.5-2 cm of soil, allowed to grow in a good greenhouse environment. After 2 weeks of sowing, the test plants were treated in the 2 leaf stage. The tested compounds of the present invention were respectively dissolved in acetone, then added with Tween 80 and 1.5 liter/ha of emulsifiable concentrate of methyl oleate as synergist, diluted with a certain amount of water to obtain a solution with a certain concentration, and sprayed with a spray tower onto the plants. After the application, the plants were cultured for 15 days in the greenhouse, and then the experimental results of the weeding were counted. The doses of the used compounds were 500, 250, 125, 60, 30, 15 g/ha, and the averages were obtained by repeating for three times.
If there is no clear marker, the post-seedling test conditions are the same as above, and the experimental results are shown in Tables 4-7.

[7] = doses of 125, 60, 30, 15 g/ha, X replaced by other five membered rings

SMILES | weeding effect in post-emergence stage, activity level (growth control rate), Abutilon theophrasti [1] | weeding effect in post-emergence stage, activity level (growth control rate), Setaria viridis [2] | weeding effect in post-emergence stage, activity level (growth control rate), Digitaria sanguinalis [3] | weeding effect in post-emergence stage, activity level (growth control rate), Amaranthus retroflexus [4] | weeding effect in post-emergence stage, activity level (growth control rate), Echinochloa crusgali [5] | herbicidal activity and/or crop safety compared with the corresponding racemate or S configuration ([6]; dose of 120, 48, 30, 24 g/ha) | herbicidal activity and/or crop safety compared with the corresponding racemate or S configuration [6, 7] | herbicidal activity and/or crop safety compared with the corresponding racemate or S configuration ([6]; no dose stated)
CCC[S@@+]([O-])c1c(C(F)F)ccc(C(=O)Nc2nnc(C)o2)c1SC [Compound 865] | 5 (Level 5: growth control rate is above 85%) | 5 (Level 5: growth control rate is above 85%) | 5 (Level 5: growth control rate is above 85%) | 5 (Level 5: growth control rate is above 85%) | 5 (Level 5: growth control rate is above 85%) | better herbicidal activity and/or crop safety | – | –
CCC[S@@+]([O-])c1c(C(F)F)ccc(C(=O)Nc2nnnn2C)c1Cl [Compound 618] | – | – | 5 (Level 5: growth control rate is above 85%) | 5 (Level 5: growth control rate is above 85%) | 5 (Level 5: growth control rate is above 85%) | – | better herbicidal activity and/or crop safety | –
CCC[S@@+]([O-])c1c(C(F)(F)F)ccc(C(=O)Nc2nnc(C)o2)c1SCC [Compound 569] | 5 (Level 5: growth control rate is above 85%) | 5 (Level 5: growth control rate is above 85%) | 5 (Level 5: growth control rate is above 85%) | 5 (Level 5: growth control rate is above 85%) | 5 (Level 5: growth control rate is above 85%) | better herbicidal activity and/or crop safety | – | –
CCC[S@@+]([O-])c1c(C(F)F)ccc(C(=O)Nc2nnc(C)o2)c1OC [Compound 864] | 5 (Level 5: growth control rate is above 85%) | 5 (Level 5: growth control rate is above 85%) | 5 (Level 5: growth control rate is above 85%) | 5 (Level 5: growth control rate is above 85%) | 5 (Level 5: growth control rate is above 85%) | – | – | better herbicidal activity and/or crop safety
CC[S@@+]([O-])c1c(C(F)(F)F)ccc(C(=O)Nc2nnc(C)o2)c1OC [Compound 306] | 5 (Level 5: growth control rate is above 85%) | 5 (Level 5: growth control rate is above 85%) | 5 (Level 5: growth control rate is above 85%) | 5 (Level 5: growth control rate is above 85%) | 5 (Level 5: growth control rate is above 85%) | – | – | better herbicidal activity and/or crop safety
COc1c(C(=O)Nc2nnc(C)o2)ccc(C(F)(F)F)c1[S@+]([O-])CC1CC1 [Compound 310] | 5 (Level 5: growth control rate is above 85%) | 5 (Level 5: growth control rate is above 85%) | 5 (Level 5: growth control rate is above 85%) | 5 (Level 5: growth control rate is above 85%) | 5 (Level 5: growth control rate is above 85%) | – | – | better herbicidal activity and/or crop safety
CCC[S@@+]([O-])c1c(C(F)F)ccc(C(=O)Nc2nnnn2C)c1F [Compound 856] | 5 (Level 5: growth control rate is above 85%) | 5 (Level 5: growth control rate is above 85%) | 5 (Level 5: growth control rate is above 85%) | 5 (Level 5: growth control rate is above 85%) | 5 (Level 5: growth control rate is above 85%) | – | better herbicidal activity and/or crop safety | –
CC(C)C[S@@+]([O-])c1c(C(F)(F)F)ccc(C(=O)Nc2nnnn2C)c1F [Compound 380] | 5 (Level 5: growth control rate is above 85%) | 5 (Level 5: growth control rate is above 85%) | 5 (Level 5: growth control rate is above 85%) | 5 (Level 5: growth control rate is above 85%) | 5 (Level 5: growth control rate is above 85%) | – | better herbicidal activity and/or crop safety | –
COC(=O)C[S@@+]([O-])c1c(C(F)(F)F)ccc(C(=O)Nc2nnc(C)o2)c1OC [Compound 353] | – | – | – | 5 (Level 5: growth control rate is above 85%) | 5 (Level 5: growth control rate is above 85%) | – | – | better herbicidal activity and/or crop safety
CCC[S@@+]([O-])c1c(C(F)(F)F)ccc(C(=O)Nc2nnnn2CC)c1F [Compound 382] | – | – | – | 5 (Level 5: growth control rate is above 85%) | 5 (Level 5: growth control rate is above 85%) | – | better herbicidal activity and/or crop safety | –
CSc1c(C(=O)Nc2nnc(C)o2)ccc(C(F)(F)F)c1[S@+]([O-])C(C)C [Compound 549] | 5 (Level 5: growth control rate is above 85%) | – | 5 (Level 5: growth control rate is above 85%) | 5 (Level 5: growth control rate is above 85%) | 5 (Level 5: growth control rate is above 85%) | better herbicidal activity and/or crop safety | – | –
COc1c(C(=O)Nc2nnc(C)o2)ccc(C(F)(F)F)c1[S@+]([O-])CCCCl [Compound 333] | 5 (Level 5: growth control rate is above 85%) | 5 (Level 5: growth control rate is above 85%) | 5 (Level 5: growth control rate is above 85%) | 5 (Level 5: growth control rate is above 85%) | 5 (Level 5: growth control rate is above 85%) | – | – | –
O=C(Nc1nnco1)c1ccc(C(F)(F)F)c([S@+]([O-])CCC(F)(F)F)c1F [Compound 581] | 5 (Level 5: growth control rate is above 85%) | 5 (Level 5: growth control rate is above 85%) | 5 (Level 5: growth control rate is above 85%) | 5 (Level 5: growth control rate is above 85%) | 5 (Level 5: growth control rate is above 85%) | – | – | –
